Measurements published in patent publication EP2420842A1, “In vivo imaging of calcified lesions” (Rheinisch-Westfälische Technische Hochschule Aachen (RWTH), priority 2010, dated 2012).

What was measured:
calcifications [1] = test: Explanted organ fluorescence, 2D reflectance imaging and ROI quantification after co-injection of both probes; format: in vivo, DBA/2 mice
calcifications [2] = test: In vivo whole body fluorescence, 2D mode (FMT instrument); parameters: species or system DBA/2 mice; conditions: standard sensitivity settings
Protocol: (§1) We used the FMT™ 2500 instrument from VisEn Medical Inc. (Bedford, MA). Mice were anesthetized with Isofluran (1.5% air 2L/min), depilated in the scanning area and a background measurement was taken for both wavelengths (680 nm and 750 nm). After this procedure the animals received both OsteoSense 750® (2 nmol in a volume of 150 µl) and Fetuin-A Alexa 680 (50 µl of a 7mg/ml solution) by intraperitoneal injection. 24 h after this application, the mice were analyzed in the FMT again and the fluorescence intensity was detected. Reconstruction of the data was performed by VisEn software.

calcifications [3] = test: In vivo 3D fluorescence molecular tomography of whole mice; parameters: species or system DBA/2 mice
Protocol: as §1

calcifications [4] = test: Combined fluorescence molecular tomography and micro computed tomography (CT-FMT fusion); format: in vivo, mice
Protocol: A dual energy µCT for small animals (TomoScope DUO, CT-Imaging, Erlangen, Germany) was used for anatomical image acquisition. The two electron tubes were both run at energies of 65KV. Each flat panel detector acquired 720 projections at 5 fps, containing 1032x1012 pixels with a pixel size of (50µm)^2. A full rotation was performed and the scan time was 90 seconds per subscan covering 30.8 mm in the transversal direction. Two subscans were acquired to cover almost the entire mouse body. A Feldkamp algorithm was used for reconstruction with isotropic voxel size of […], dimensions of 600x500x440, field of view of 42mm x 35mm x 30.8mm and a soft reconstruction kernel (T10).
The FMT probe was injected 24 hours before imaging through i.v. tail vein injection. Hair was removed with depilatory crème around the region of interest. For preparations and imaging, mice were anesthetized with Isofluran. […]
The reconstructed 3D data sets from CT and FMT were fused by computing a rigid body transformation minimizing the residual error between fiducial markers detected in both modalities. […] The average number of markers that were found in both modalities was 12 with average fiducial error of 0.174mm, which was evaluated on a representative set of 31 scans. […]

calcified lesions = test: Histology: staining of calcified lesions with unlabelled or Alexa Fluor 488 labelled fetuin-A (injected or applied to sections); format: in vivo, fetuin-A deficient mice
Protocol: The mice were injected with unlabelled or Alexa Fluor® 488 coupled fetuin-A. They received 100 µl / 25 g body weight of a 7 mg/ml solution. Five hours after injection the mice were killed, organs were harvested, embedded in TissueTek (Sakura), and snap-frozen and in liquid nitrogen. Serial cryotome sections were prepared and fixed in ice cold acetone. For general histology hematoxilin/eosin staining and von-Kossa staining were performed.
To localize unlabelled fetuin-A, sections were incubated for one hour with a homemade polyclonal rabbit anti bovine fetuin-A antibody followed by secondary goat anti rabbit Alexa Fluor® 546 antibody and DAPI staining. To localize calcified lesions, sections were incubated with Alexa Fluor® 488-coupled fetuin-A for one hour and then were counterstained with DAPI. Sections of organs from mice injected with Alexa Fluor® 488 labelled Fetuin A were stained with DAPI only.

Row | Molecule | combined signal from regions of interest (ROI), kidneys (calcifications [1]; Fetuin-A-/- mice, kidneys) | combined signal from regions of interest (ROI), lungs (calcifications [1]; Fetuin-A-/- mice, lungs) | staining of heart (explanted organ) (calcifications [1]; fetuin-A deficient mice) | staining of brown fat, lungs and kidneys (explanted organs) (calcifications [1]; fetuin-A deficient mice, heavily calcified organs) | tissue accumulation, Fetuin-A-/- versus wildtype, kidneys (calcifications [1]; kidneys) | tissue accumulation, Fetuin-A-/- versus wildtype, lungs (calcifications [1]; lungs) | signal (2D reflectance images) (calcifications [1]; tissues (brown fat, heart, lung, kidneys) from wildtype mice, OsteoSense at both 1-fold and 10-fold sensitivity setting) | combined signal from regions of interest (ROI), kidneys (calcifications [1]; wildtype mice, kidneys) | combined signal from regions of interest (ROI), lungs (calcifications [1]; wildtype mice, lungs) | whole body 2D scan signal (calcifications [2]; D2, Fetuin-A+/+ wildtype mice) | whole body 2D scan signal (calcifications [2]; D2, Fetuin-A-/- mice) | 3D fluorescence tomography staining pattern (calcifications [3]; DBA/2 wildtype mouse (Fig. 6A, B)) | excretion route (staining of the digestive tract, signal associated with faeces) (calcifications [3]; digestive tract) | 3D fluorescence tomography signal (calcifications [3]; fetuin-A deficient (knockout) mouse (Fig. 6D)) | 3D fluorescence signal strength (calcifications [3]; wildtype and knockout animal (Fig. 6A, C), higher in wildtype than in knockout) | CT-FMT fused signal localization (calcifications [4]; D2, fetuin-A+/+ wildtype mice) | CT-FMT fused signal localization (calcifications [4]; D2, fetuin-A-/- mice) | lesion size detected compared with established histology methods (H/E, von Kossa) (calcified lesions; Fig. 1, injected into live animals or applied to histological sections) | detection of lesions in serial sections of the heart (calcified lesions; Fig. 2, fetuin-A deficient mouse, compared with Hematoxylin-Eosin and von Kossa) | staining of calcified lesions (calcified lesions; fetuin-A deficient mice, both in vivo (injected) and on sections)
1 | Fetuin-A Alexa 680: Fetuin-A monomer (Sigma Aldrich, F2379), purified by gel chromatography, coupled to Alexa Fluor® 680 dye | 6740 counts/energy | 3303 counts/energy | stained weakly | strongly stained | increased over six-fold | almost doubled | 0.25 Count/Energy | 1025 counts/energy | 1816 counts/energy | no signal | strong signals | outlined the gut, kidneys and the brown fat pad in the neck | at least partially excreted through this route | highly detected in the neck and in the left kidney but also in the gut | much higher | low signal in the digestive tract | faint signal in the neck and the thorax, but a higher one in the kidney and the digestive tract |  |  | 
2 | Alexa Fluor® 488-labelled fetuin-A: Fetuin-A monomer (Sigma Aldrich, F2379), purified by gel chromatography, coupled to Alexa Fluor® 488 dye (conjugate, UniProt P12763 19-359, looked up, Alexa Fluor 488 dye, Fetuin-A monomer (Sigma Aldrich, F2379), purified by gel chromatography, coupled to Alexa Fluor® 488 dye) Alpha-2-HS-glycoprotein: IPLDPVAGYKEPACDDPDTEQAALAAVDYINKHLPRGYKHTLNQIDSVKVWPRRPTGEVYDIEIDTLETTCHVLDPTPLANCSVRQQTQHAVEGDCDIHVLKQDGQFSVLFTKCDSSPDSAEDVRKLCPDCPLLAPLNDSRVVHAVEVALATFNAESNGSYLQLVEISRAQFVPLPVSVSVEFAVAATDCIAKEVVDPTKCNLLAEKQYGFCKGSVIQKALGGEDVRVTCTLFQTQPVIPQPQPDGAEAEAPSAVPDAAGPTPSAAGPPVASVVVGPSVVAVPLPLHRAHYDLRHTFSGVASVESSSGEAFHVGKTPIVGQPSIPGGPVRLCPGRIRYFKI |  |  |  |  |  |  |  |  |  |  |  |  |  |  |  |  |  | also detected much smaller lesions | enabled the detection of an additional very small lesion | readily stained calcified lesions
